Data taken from ChEMBL document CHEMBL1201862, “PubChem BioAssay data set” (2004).
Calls of active or inactive are those of the source.

Experiments:
[1] = molecular target: T1, Voltage-dependent T-type calcium channel subunit alpha-1H (Homo sapiens, UniProt O95180); test: human CACNA1H calcium influx blockade – cell-based, synthetic library set 2, HEK293 HH8, Fluo-4, SAR follow-up (AID 493023); assay type: functional
[2] = molecular target: Nucleotide-binding oligomerization domain-containing protein 2 (Homo sapiens, UniProt Q9HC29); test: inhibition of MDP-driven NOD2 NF-kB reporter – cell-based, set 3, SAR follow-up (AID 2799); assay type: functional
HEK293 = test: SAR analysis of compounds that are cytotoxic to HEK293 - Set 3. [Related pubchem assays (depositor defined):AID1575, AID1578, AID1848, AID1849, AID2001, AID2333, AID2334, AID2335, AID2337, AID2469]; assay type: functional, cell-based; conditions: Homo sapiens
[3] = molecular target: T2, Nucleotide-binding oligomerization domain-containing protein 1 (Homo sapiens, UniProt Q9Y239); test: SAR analysis of compounds that inhibit NOD1 - Set 3. [Related pubchem assays (depositor defined):AID1566, AID1575, AID1578, AID1849, AID1852, AID2333, AID2335, AID2466]; assay type: functional
T2 sequence (Q9Y239 whole entry): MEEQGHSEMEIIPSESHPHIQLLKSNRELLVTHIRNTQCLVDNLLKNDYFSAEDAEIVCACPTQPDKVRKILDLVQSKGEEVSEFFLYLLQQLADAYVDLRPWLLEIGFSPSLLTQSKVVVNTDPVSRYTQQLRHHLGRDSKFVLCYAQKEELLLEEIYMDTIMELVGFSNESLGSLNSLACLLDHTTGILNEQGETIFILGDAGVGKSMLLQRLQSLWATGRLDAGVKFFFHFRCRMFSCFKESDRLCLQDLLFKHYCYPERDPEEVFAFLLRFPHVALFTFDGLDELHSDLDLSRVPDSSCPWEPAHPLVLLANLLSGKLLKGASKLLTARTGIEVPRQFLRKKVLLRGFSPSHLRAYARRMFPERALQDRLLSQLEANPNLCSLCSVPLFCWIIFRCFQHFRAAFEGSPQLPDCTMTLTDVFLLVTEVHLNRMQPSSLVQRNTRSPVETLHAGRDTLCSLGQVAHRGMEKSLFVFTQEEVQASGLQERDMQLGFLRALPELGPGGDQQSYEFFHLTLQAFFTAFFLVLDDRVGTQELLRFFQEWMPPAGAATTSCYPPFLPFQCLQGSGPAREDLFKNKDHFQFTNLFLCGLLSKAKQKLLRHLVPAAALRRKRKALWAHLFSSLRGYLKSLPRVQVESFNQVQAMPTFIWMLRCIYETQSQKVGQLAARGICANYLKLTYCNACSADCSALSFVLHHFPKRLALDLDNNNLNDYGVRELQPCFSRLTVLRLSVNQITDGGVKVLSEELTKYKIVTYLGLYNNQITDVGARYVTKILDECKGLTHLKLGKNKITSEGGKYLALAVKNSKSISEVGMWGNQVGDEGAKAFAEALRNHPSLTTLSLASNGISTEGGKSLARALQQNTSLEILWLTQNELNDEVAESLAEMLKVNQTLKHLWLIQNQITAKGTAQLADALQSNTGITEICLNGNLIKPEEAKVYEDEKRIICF

Tumor necrosis factor = Tumor necrosis factor (Homo sapiens, UniProt P01375); test: analog potency on TNFa NF-kB signaling – cell-based, set 3, SAR follow-up (AID 2801); assay type: functional
[4] = molecular target: T1, Voltage-dependent T-type calcium channel subunit alpha-1H; test: inhibition of CACNA1H calcium flux – cell-based, SynthLib3 library, HEK293 Cav3.2, fluorescence (AID 493041); assay type: functional
[5] = DRD fibroblast viability loss – cell-based, non-viral oncogenic, luminescence, dose response (AID 1934); assay type: functional; conditions: Homo sapiens
BJ [6] = test: cells; assay type: functional, cell-based; conditions: Homo sapiens
[7] = molecular target: FAD-linked sulfhydryl oxidase ALR (Homo sapiens, UniProt P55789); test: ALR-catalysed DTT oxidation blockers – biochemical, H2O2 detection, luminescence, cherry-pick, dose response (AID 493248)
[8] = molecular target: DNA damage-inducible transcript 3 protein (Mus musculus, UniProt P35639); assay type: functional, Cricetulus griseus
BJ [9] = test: BJ-TERT fibroblast viability loss – cell-based, RAS-independent, luminescence, dose response (AID 1933); assay type: functional; conditions: Homo sapiens
BJ [10] = test: BJ-TERT-LT-ST fibroblast viability loss – cell-based, RAS-independent, luminescence, dose response (AID 1935); assay type: functional; conditions: Homo sapiens;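 note: BJ fibroblasts immortalized with TERT plus LT and ST oncogenes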
Melanocortin receptor 4 = Melanocortin receptor 4 (Homo sapiens, UniProt P32245); assay type: functional, cell-based;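 note: Cell-based assay with luminescence read-out, confirmatory dose-response testing for agonist activity of biased ligands at MC4R; human U2OS cells with tagged receptor and beta-arrestin; potency of agonists that increase receptor coupling to beta-arrestin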
[11] = molecular target: T3, Kappa-type opioid receptor (Homo sapiens, UniProt P41145); assay type: functional
[12] = molecular target: T4, Delta-type opioid receptor (Homo sapiens, UniProt P41143); test: HTS Image-Based Screen for Agonists of the DOR Receptor. [Related pubchem assays (depositor defined):AID1777, AID1786, AID2133]; assay type: functional
[13] = molecular target: T4, Delta-type opioid receptor; test: HTS Image-Based Screen for Antagonists of the DOR Receptor. [Related pubchem assays (depositor defined):AID1777, AID1785, AID1786, AID2133]; assay type: functional
Mu-type opioid receptor = Mu-type opioid receptor (Homo sapiens, UniProt P35372); test: HTS Image-Based Screen for Agonists of the MOR Receptor. [Related pubchem assays (depositor defined):AID1777, AID1785, AID1786, AID2133]; assay type: functional;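 note: imaging of beta-arrestin GFP recruitment into spots after receptor activation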
[14] = molecular target: T3, Kappa-type opioid receptor; assay type: functional; remark: listed apart in the source

T3 sequence (P41145 whole entry): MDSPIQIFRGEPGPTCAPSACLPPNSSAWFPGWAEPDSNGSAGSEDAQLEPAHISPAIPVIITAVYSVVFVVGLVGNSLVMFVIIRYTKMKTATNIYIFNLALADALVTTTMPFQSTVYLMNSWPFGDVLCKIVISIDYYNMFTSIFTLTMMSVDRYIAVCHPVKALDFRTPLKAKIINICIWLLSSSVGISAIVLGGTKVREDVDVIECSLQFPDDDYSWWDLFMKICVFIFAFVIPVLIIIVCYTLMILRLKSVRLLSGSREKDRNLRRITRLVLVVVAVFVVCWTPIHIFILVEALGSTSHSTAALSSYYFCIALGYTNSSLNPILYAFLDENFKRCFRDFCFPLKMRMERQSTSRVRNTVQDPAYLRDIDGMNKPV
T1 sequence (O95180 whole entry, the tested form may be a part): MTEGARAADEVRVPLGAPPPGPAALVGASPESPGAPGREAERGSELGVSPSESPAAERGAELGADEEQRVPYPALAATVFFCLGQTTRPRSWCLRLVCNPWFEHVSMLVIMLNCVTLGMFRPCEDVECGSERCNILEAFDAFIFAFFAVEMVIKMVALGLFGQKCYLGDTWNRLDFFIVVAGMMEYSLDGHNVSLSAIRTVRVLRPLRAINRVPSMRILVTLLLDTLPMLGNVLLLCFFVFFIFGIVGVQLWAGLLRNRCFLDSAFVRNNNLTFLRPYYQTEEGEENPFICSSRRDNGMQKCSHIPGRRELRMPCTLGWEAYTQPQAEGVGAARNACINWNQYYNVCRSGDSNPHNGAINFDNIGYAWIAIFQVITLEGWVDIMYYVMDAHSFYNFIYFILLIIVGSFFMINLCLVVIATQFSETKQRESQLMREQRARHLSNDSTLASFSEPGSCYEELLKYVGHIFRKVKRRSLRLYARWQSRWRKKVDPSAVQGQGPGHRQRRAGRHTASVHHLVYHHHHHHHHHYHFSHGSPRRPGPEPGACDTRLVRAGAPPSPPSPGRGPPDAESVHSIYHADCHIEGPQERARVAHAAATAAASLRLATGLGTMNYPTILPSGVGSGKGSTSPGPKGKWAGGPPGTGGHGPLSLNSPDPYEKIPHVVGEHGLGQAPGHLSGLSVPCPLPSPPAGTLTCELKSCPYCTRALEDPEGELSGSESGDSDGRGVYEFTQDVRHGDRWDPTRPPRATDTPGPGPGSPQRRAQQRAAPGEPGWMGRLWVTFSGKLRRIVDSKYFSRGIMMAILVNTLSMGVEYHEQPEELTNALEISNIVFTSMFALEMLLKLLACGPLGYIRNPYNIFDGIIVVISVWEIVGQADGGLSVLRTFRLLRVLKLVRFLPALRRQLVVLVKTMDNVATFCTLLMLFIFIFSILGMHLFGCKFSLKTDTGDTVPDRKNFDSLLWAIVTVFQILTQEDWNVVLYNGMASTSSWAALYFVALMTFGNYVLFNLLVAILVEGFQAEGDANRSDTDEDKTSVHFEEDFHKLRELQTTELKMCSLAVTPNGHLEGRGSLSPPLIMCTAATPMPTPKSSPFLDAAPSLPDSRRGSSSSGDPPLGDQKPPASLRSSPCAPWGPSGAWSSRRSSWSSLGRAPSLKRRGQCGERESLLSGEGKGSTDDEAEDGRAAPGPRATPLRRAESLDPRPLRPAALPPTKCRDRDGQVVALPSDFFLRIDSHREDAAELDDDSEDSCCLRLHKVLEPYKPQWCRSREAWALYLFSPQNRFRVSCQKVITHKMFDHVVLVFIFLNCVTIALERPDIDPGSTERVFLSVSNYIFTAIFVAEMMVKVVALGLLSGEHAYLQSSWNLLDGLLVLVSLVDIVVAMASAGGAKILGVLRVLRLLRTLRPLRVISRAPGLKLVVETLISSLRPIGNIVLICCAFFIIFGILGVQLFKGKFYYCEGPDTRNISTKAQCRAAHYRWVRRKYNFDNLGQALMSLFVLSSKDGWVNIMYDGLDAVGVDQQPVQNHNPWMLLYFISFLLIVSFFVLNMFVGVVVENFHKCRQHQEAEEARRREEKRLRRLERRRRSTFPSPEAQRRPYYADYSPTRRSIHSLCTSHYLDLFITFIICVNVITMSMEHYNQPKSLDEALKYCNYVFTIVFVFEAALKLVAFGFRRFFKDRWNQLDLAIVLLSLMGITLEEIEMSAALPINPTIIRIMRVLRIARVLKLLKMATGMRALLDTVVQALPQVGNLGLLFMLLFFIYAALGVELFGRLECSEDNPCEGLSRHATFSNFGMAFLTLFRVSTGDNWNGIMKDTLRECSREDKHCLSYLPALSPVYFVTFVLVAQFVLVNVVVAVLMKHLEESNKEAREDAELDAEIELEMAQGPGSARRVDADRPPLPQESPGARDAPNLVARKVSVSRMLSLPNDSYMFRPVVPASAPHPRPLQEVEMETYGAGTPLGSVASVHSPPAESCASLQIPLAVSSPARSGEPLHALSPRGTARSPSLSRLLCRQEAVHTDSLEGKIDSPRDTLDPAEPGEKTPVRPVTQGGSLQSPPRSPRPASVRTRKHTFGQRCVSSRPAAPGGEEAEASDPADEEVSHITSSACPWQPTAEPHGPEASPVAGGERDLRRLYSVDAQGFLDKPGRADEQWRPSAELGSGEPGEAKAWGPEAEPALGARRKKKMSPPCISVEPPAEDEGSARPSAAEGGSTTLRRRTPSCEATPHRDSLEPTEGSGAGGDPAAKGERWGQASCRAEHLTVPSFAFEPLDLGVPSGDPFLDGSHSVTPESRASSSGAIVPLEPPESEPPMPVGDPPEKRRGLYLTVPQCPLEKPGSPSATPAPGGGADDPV
T4 sequence (P41143 whole entry): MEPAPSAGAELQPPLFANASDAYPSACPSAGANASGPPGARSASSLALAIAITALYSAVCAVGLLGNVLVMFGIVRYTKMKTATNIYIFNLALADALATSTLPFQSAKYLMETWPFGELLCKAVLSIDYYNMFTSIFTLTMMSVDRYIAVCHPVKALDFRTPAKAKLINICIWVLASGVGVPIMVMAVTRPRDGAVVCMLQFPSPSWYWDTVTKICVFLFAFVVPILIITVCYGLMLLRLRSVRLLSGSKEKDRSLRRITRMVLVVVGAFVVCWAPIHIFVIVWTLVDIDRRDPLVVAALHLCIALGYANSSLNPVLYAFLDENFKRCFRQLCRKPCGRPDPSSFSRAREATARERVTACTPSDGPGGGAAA
Sequence of Nucleotide-binding oligomerization domain-containing protein 2 (Q9HC29 whole entry, the tested form may be a part): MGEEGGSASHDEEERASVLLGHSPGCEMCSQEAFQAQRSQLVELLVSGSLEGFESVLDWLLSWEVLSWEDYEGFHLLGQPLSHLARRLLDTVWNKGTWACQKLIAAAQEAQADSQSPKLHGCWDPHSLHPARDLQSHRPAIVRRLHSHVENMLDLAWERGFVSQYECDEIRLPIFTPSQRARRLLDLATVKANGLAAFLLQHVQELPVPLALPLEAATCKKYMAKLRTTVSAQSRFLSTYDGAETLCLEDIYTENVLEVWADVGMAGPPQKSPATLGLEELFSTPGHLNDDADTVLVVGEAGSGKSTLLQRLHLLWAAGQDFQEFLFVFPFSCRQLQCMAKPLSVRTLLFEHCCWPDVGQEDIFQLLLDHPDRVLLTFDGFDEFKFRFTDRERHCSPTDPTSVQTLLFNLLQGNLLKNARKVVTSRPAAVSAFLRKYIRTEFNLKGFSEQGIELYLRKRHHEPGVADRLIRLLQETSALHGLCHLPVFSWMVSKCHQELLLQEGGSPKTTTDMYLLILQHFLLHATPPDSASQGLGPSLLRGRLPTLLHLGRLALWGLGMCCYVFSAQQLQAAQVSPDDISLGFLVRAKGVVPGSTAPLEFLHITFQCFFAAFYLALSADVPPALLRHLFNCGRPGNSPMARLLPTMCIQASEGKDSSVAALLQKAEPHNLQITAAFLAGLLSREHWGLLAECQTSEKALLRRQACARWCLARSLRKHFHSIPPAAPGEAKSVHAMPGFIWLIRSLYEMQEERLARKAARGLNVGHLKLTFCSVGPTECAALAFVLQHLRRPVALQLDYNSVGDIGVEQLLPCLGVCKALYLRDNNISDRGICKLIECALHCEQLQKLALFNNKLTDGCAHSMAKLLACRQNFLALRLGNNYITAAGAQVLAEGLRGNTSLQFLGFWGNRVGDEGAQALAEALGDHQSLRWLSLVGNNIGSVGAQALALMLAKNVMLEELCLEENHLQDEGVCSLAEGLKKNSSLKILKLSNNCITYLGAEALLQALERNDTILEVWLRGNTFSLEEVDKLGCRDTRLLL
Sequence of Melanocortin receptor 4 (P32245 whole entry): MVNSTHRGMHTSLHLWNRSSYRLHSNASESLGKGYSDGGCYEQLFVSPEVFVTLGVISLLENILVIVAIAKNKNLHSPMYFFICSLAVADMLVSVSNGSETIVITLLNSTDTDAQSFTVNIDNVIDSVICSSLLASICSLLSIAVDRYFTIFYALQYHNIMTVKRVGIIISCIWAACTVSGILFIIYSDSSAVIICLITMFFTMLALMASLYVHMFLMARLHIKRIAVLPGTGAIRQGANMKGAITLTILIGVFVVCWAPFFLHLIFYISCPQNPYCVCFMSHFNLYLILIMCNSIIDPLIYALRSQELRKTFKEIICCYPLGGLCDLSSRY
Sequence of DNA damage-inducible transcript 3 protein (P35639 whole entry): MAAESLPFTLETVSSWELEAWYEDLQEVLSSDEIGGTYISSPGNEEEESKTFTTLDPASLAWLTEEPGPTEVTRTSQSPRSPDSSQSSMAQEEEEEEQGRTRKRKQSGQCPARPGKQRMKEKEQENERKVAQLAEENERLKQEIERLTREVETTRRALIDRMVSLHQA
Sequence of FAD-linked sulfhydryl oxidase ALR (P55789 whole entry): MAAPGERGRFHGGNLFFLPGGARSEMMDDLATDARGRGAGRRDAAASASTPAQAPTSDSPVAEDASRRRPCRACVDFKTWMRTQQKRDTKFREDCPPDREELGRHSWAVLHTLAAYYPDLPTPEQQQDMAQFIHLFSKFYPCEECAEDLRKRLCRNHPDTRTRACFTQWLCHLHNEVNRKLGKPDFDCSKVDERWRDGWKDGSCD

For `O=C(COc1ccc(F)cc1Cl)N[C@@H]1CCCN(Cc2ccccc2)C1`, which EC50 [1] is on record?
The EC50 was 10 µM (active).

For `CC(C)C(=O)N(C)C(c1ccccc1)c1c[nH]c2ccccc12` (stereo not drawn), which IC50 [2] is on record?
The IC50 was > 20 µM (inactive).

What about the IC50 (HEK293) of the same compound?
Its IC50 is > 20 µM (inactive).

What about the IC50 [3] of the same compound?
The IC50 was > 20 µM (inactive).

And the IC50 (Tumor necrosis factor)?
Its IC50 is > 20 µM (inactive).

With `CCC(C)CN1CCC[C@H](NC(=O)COc2ccc(F)c(Cl)c2)C1` (stereo partly drawn) as the compound, how does the EC50 [4] read?
Its EC50 is 10 µM (active).

Which EC50 [5] does the source give for `COc1ccc(N/N=C(\C=N\O)C(=O)c2ccc(OC)cc2)cc1` here?
The EC50 was 1.15 µM (active).

And the EC50 (BJ [6])?
The EC50 was 49 µM (active).

And the AC50 [7]?
Its AC50 is 0.009 µM (active).

What about the “Absolute IC50 (CHOP)” value [8] of the same compound?
Its value is 10 µM.

What about the EC50 (BJ [9]) of the same compound?
The EC50 was 1.56 µM (inconclusive).

What about the EC50 (BJ [10]) of the same compound?
Its EC50 is 2.41 µM (inconclusive).

With `Nc1ccc(C2(c3ccc(N)cc3)c3ccccc3-c3ccccc32)cc1` as the compound, how does the EC50 (Melanocortin receptor 4) read?
The EC50 was > 89.2 µM (inactive).

What about the EC50 [11] of the same compound?
Its EC50 is 8.41 µM.

And the EC50 [12]?
The EC50 was > 32 µM (inactive).

And the IC50 [13]?
The IC50 was > 32 µM (inactive).

And the EC50 (Mu-type opioid receptor)?
Its EC50 is > 32 µM (inactive).

What about the EC50 [14] of the same compound?
The EC50 was greater than 35 µM.
